Earlier results in patent publication US7238375B1, “Composition and method to promote human hair growth” (priority 2004, dated 2007).

Tests used:
Type 1 5-alpha-reductase = molecular target: T1, Type 1 5-alpha-reductase (Homo sapiens, UniProt P18405); details: application of copper ion to skin
T1 sequence (P18405 1-259): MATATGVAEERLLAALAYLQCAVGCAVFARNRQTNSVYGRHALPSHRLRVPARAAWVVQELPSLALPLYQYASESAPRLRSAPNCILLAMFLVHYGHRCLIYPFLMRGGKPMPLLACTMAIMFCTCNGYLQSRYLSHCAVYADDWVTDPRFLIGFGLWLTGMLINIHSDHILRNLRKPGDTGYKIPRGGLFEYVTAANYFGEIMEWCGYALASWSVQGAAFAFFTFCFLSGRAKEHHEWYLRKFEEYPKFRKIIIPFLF

Type 2 5-alpha-reductase = molecular target: T2, Type 2 5-alpha-reductase (Homo sapiens, UniProt P31213); details: application of copper ion to skin
T2 sequence (P31213 1-254): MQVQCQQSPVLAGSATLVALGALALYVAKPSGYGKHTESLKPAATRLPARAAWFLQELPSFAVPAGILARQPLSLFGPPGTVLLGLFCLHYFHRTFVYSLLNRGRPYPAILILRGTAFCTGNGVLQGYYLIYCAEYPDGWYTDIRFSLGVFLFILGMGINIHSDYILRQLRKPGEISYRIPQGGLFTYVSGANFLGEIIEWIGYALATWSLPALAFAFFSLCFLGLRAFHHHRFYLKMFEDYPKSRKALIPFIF

sheep = details: supplement in the diet of sheep

| IC50 (Type 1 5-alpha-reductase; read-out: concentration giving 50% reduction in activity of Type 1 5-alpha-reductase) | concentration giving 50% reduction in activity of Type 2 5-alpha-reductase (Type 2 5-alpha-reductase) | IC50 (Type 2 5-alpha-reductase; read-out: concentration giving 50% reduction in activity of Type 2 5-alpha-reductase) | SMILES | concentration giving 50% reduction in activity of Type 1 5-alpha-reductase (Type 1 5-alpha-reductase) | effect on hair shafts (rats) | effect on wool growth patterns (sheep) |
| --- | --- | --- | --- | --- | --- | --- |
| 1.9 µM | 1.2 micrograms copper ion per milliliter | 10.2 µM | [Cu+2] [Copper ion] | 0.12 micrograms copper ion per milliliter | – | – |
| – | – | – | N[C@@H](CS)C(=O)O [Cysteine] | – | thicker hair shafts | significant modification in wool growth patterns |
